Results from PubChem BioAssay AID330 (DTP/NCI, 2004).
Several values for one entry are separate records, joined by “and”; a condition that tells them apart may be missing. Equal entries are not always repeated. Toxic doses and inconclusive results are not listed. How the source made its calls: active means survival T/C of 150% or more; inactive means T/C below 125% in these data.

System: P388 leukemia ip, CD2F1 mice, survival T/C
Assay: NCI In Vivo Anticancer Drug Screen. Data for tumor model P388 Leukemia (intraperitoneal) in CD2F1 (CDF1) mice
Settings: endpoint: median survival time, higher = longer survival
Summary of the method: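 Mice carrying the transplanted tumor received test compound or vehicle. Survival was recorded in each group, and the value is the treated-group measurement divided by that of the vehicle-treated control group.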

[1] = dose: 50.0 mg/kg/injection, schedule: Q01DX005 (ip), vehicle: saline with Tween-80
[2] = dose: 100.0 mg/kg/injection, schedule: Q01DX005 (ip), vehicle: saline with Tween-80
[3] = dose: 200.0 mg/kg/injection, schedule: Q01DX005 (ip), vehicle: saline with Tween-80
[4] = dose: 100.0 mg/kg/injection, schedule: Q01DX009 (ip), vehicle: Klucel (hydroxypropylcellulose) (HPC)
[5] = dose: 60.0 mg/kg/injection, schedule: Q01DX005 (ip), vehicle: saline with Tween-80
[6] = dose: 120.0 mg/kg/injection, schedule: Q01DX005 (ip), vehicle: saline with Tween-80
[7] = dose: 240.0 mg/kg/injection, schedule: Q01DX005 (ip), vehicle: saline with Tween-80
[8] = dose: 50.0 mg/kg/injection, schedule: Q01DX009 (ip), vehicle: saline with Tween-80
[9] = dose: 100.0 mg/kg/injection, schedule: Q01DX009 (ip), vehicle: saline with Tween-80

Measured: T/C

O=C(c1cccc2c1Oc1ccccc1S2)c1cccc2c1Oc1ccccc1S2
inactive: [1] 113 % of control | [2] 103 % of control | [3] 103 % of control

c1ccc2c(CC3NCCN3)cccc2c1
inactive: dose: 6.25 mg/kg/injection, schedule: Q01DX009 (ip), vehicle: saline 100 % of control | dose: 12.5 mg/kg/injection, schedule: Q01DX009 (ip), vehicle: saline 100 % of control | dose: 25.0 mg/kg/injection, schedule: Q01DX009 (ip), vehicle: saline 92 % of control

COc1cccc2c1C(=O)c1c(O)c3c(c(O)c1C2=O)CC(O)(C(C)=O)CC3OC1CC(N/C(C)=C/C(C)=O)C(O)C(C)O1 (stereo not given)
inactive: dose: 3.13 mg/kg/injection, schedule: Q04DX003 (ip), vehicle: distilled water + Tween-80 94 % of control | dose: 6.25 mg/kg/injection, schedule: Q04DX003 (ip), vehicle: distilled water + Tween-80 103 % of control | dose: 12.5 mg/kg/injection, schedule: Q04DX003 (ip), vehicle: distilled water + Tween-80 103 % of control | dose: 25.0 mg/kg/injection, schedule: Q04DX003 (ip), vehicle: distilled water + Tween-80 115 % of control and 119 % of control | dose: 200.0 mg/kg/injection, schedule: Q04DX003 (ip), vehicle: distilled water + Tween-80 102 % of control

CCN(CC)C(=O)Nc1ccc(O)c(C(=O)O)c1
inactive: dose: 100.0 mg/kg/injection, schedule: Q01DX001 (ip), vehicle: saline with Tween-80 100 % of control | dose: 200.0 mg/kg/injection, schedule: Q01DX001 (ip), vehicle: saline with Tween-80 100 % of control | dose: 400.0 mg/kg/injection, schedule: Q01DX001 (ip), vehicle: saline with Tween-80 100 % of control

CN1c2ccccc2S(=O)(=O)n2c(Cc3ccccc3)nnc21
inactive: dose: 100.0 mg/kg/injection, schedule: Q04DX002 (ip), vehicle: saline with Tween-80 92 % of control | dose: 200.0 mg/kg/injection, schedule: Q04DX002 (ip), vehicle: saline with Tween-80 90 % of control | dose: 400.0 mg/kg/injection, schedule: Q04DX002 (ip), vehicle: saline with Tween-80 90 % of control

C[Si](C)(C)C#CCO
inactive: [1] 101 % of control | [2] 100 % of control | [3] 105 % of control

CC1=C/C(=N\NS(=O)(=O)c2ccc([N+](=O)[O-])cc2)CC(C)(C)C1
inactive: [4] 87 % of control | dose: 200.0 mg/kg/injection, schedule: Q01DX009 (ip), vehicle: Klucel (hydroxypropylcellulose) (HPC) 98 % of control | dose: 400.0 mg/kg/injection, schedule: Q01DX009 (ip), vehicle: Klucel (hydroxypropylcellulose) (HPC) 100 % of control

CCC1CCC(=O)NC1=O (stereo not given)
inactive: [5] 103 % of control | [6] 103 % of control | [7] 98 % of control

CC(=O)Oc1c(C)c(OC(C)=O)c2c(c1C(C)=O)OC1CC(=O)C(C(C)=O)=C(O)C21C (stereo not given)
inactive: dose: 6.25 mg/kg/injection, schedule: Q01DX009 (ip), vehicle: gum acacia 101 % of control and 97 % of control | dose: 12.5 mg/kg/injection, schedule: Q01DX009 (ip), vehicle: gum acacia 100 % of control and 102 % of control | dose: 25.0 mg/kg/injection, schedule: Q01DX009 (ip), vehicle: gum acacia 102 % of control | dose: 50.0 mg/kg/injection, schedule: Q01DX009 (ip), vehicle: gum acacia 101 % of control and 104 % of control | dose: 100.0 mg/kg/injection, schedule: Q01DX009 (ip), vehicle: gum acacia 94 % of control

CCOC(=O)/C=C1\CCCn2c1ncc(C(=O)OCC)c2=O
inactive: dose: 60.0 mg/kg/injection, schedule: Q01DX005 (ip), vehicle: Klucel (hydroxypropylcellulose) (HPC) 101 % of control | dose: 120.0 mg/kg/injection, schedule: Q01DX005 (ip), vehicle: Klucel (hydroxypropylcellulose) (HPC) 100 % of control | dose: 240.0 mg/kg/injection, schedule: Q01DX005 (ip), vehicle: Klucel (hydroxypropylcellulose) (HPC) 108 % of control

CCCCCCCC[N+](C)(C)CCSCC[N+](C)(C)CCCCCCCC
inactive: dose: 3.13 mg/kg/injection, schedule: Q01DX009 (ip), vehicle: saline with Tween-80 99 % of control | dose: 6.25 mg/kg/injection, schedule: Q01DX009 (ip), vehicle: saline with Tween-80 96 % of control | dose: 12.5 mg/kg/injection, schedule: Q01DX009 (ip), vehicle: saline with Tween-80 114 % of control

O=S1(=O)C(c2ccc(F)cc2)=C(O)c2cc3ccccc3nc21
inactive: [8] 112 % of control | [9] 97 % of control

Cc1cc2nc(CC(=O)c3cccnc3)c(=O)[nH]c2cc1C
inactive: dose: 7.5 mg/kg/injection, schedule: Q01DX005 (ip), vehicle: saline with Tween-80 100 % of control | dose: 15.0 mg/kg/injection, schedule: Q01DX005 (ip), vehicle: saline with Tween-80 94 % of control | dose: 30.0 mg/kg/injection, schedule: Q01DX005 (ip), vehicle: saline with Tween-80 92 % of control | [7] 88 % of control

CC12CCC(Br)C(C)(C)C1CC=C1C(=O)OCC1O2 (stereo not given)
inactive: dose: 7.5 mg/kg/injection, schedule: Q01DX009 (ip), vehicle: Klucel (hydroxypropylcellulose) (HPC) 101 % of control | dose: 15.0 mg/kg/injection, schedule: Q01DX009 (ip), vehicle: Klucel (hydroxypropylcellulose) (HPC) 105 % of control | dose: 30.0 mg/kg/injection, schedule: Q01DX009 (ip), vehicle: Klucel (hydroxypropylcellulose) (HPC) 111 % of control | dose: 60.0 mg/kg/injection, schedule: Q01DX009 (ip), vehicle: Klucel (hydroxypropylcellulose) (HPC) 111 % of control

COc1c(-c2ccccc2)c(=O)n2c3cc(C)c(C)cc3n(C)c2c1C#N
inactive: [5] 100 % of control | [6] 86 % of control | [7] 89 % of control

O=C(CCCCC(=O)Nc1cc(C2=NCCN2)cc(C2N=CCN2)c1)Nc1cc(C2=NCCN2)cc(C2=NCCN2)c1 (stereo not given)
inactive: dose: 6.25 mg/kg/injection, schedule: Q01DX005 (ip), vehicle: saline 104 % of control

CCCCSc1nc2ccc(N=Cc3ccccc3O)cc2s1
inactive: dose: 50.0 mg/kg/injection, schedule: Q01DX009 (ip), vehicle: Klucel (hydroxypropylcellulose) (HPC) 103 % of control | [4] 99 % of control

COc1ccc2oc3cccc(NCCN(C)C)c3c(=O)c2c1
inactive: dose: 25.0 mg/kg/injection, schedule: Q01DX005 (ip), vehicle: Klucel (hydroxypropylcellulose) (HPC) 105 % of control | dose: 50.0 mg/kg/injection, schedule: Q01DX005 (ip), vehicle: Klucel (hydroxypropylcellulose) (HPC) 100 % of control | dose: 100.0 mg/kg/injection, schedule: Q01DX005 (ip), vehicle: Klucel (hydroxypropylcellulose) (HPC) 107 % of control | dose: 200.0 mg/kg/injection, schedule: Q01DX005 (ip), vehicle: Klucel (hydroxypropylcellulose) (HPC) 107 % of control

COc1ccc(NS(=O)(=O)c2ccc(NC3OC(CO)C(O)C(O)C3NC(C)=O)cc2)nn1 (stereo not given)
inactive: dose: 50.0 mg/kg/injection, schedule: Q01DX005 (ip), vehicle: saline 104 % of control | dose: 100.0 mg/kg/injection, schedule: Q01DX005 (ip), vehicle: saline 100 % of control | dose: 200.0 mg/kg/injection, schedule: Q01DX005 (ip), vehicle: saline 104 % of control

CCCCNc1cc(Nc2ccc(Br)cc2)nc(N)n1
inactive: dose: 6.25 mg/kg/injection, schedule: Q04DX003 (ip), vehicle: saline with Tween-80 106 % of control | dose: 12.5 mg/kg/injection, schedule: Q04DX003 (ip), vehicle: saline with Tween-80 99 % of control | dose: 25.0 mg/kg/injection, schedule: Q04DX003 (ip), vehicle: saline with Tween-80 106 % of control | dose: 50.0 mg/kg/injection, schedule: Q04DX003 (ip), vehicle: saline with Tween-80 100 % of control

Cc1nn(C(=O)c2ccncc2)c(C)c1N=Nc1ccc(S(=O)(=O)Nc2nccs2)cc1
inactive: dose: 100.0 mg/kg/injection, schedule: Q04DX003 (ip), vehicle: saline 96 % of control | dose: 200.0 mg/kg/injection, schedule: Q04DX003 (ip), vehicle: saline 97 % of control | dose: 400.0 mg/kg/injection, schedule: Q04DX003 (ip), vehicle: saline 110 % of control

COC(=O)C1CCc2c(cnn2-c2ccccn2)C1 (stereo not given)
inactive: [8] 97 % of control | [9] 101 % of control | dose: 200.0 mg/kg/injection, schedule: Q01DX009 (ip), vehicle: saline with Tween-80 100 % of control
